{
  "source": "paper PMC12052742",
  "about": "“Engineering a newly identified alcohol dehydrogenase from Sphingobium Sp. for efficient utilization of nicotinamide cofactors biomimetics” (Bioresources and Bioprocessing, 2025)",
  "assay_type_in_all_cases": "biochemical, Sphingobium sp. SYK-6",
  "settings_in_all_cases": "cofactor p-BANA^+, substrate syringyl alcohol",
  "key": {"SpADH2 variant A47G": {"test_system": "SpADH2 variant A47G", "assay": "Activity of variant in oxidation of syringyl alcohol with p-BANA^+ (Fig. 5), A47G", "description": "(§1) In the first round of screening, saturation mutagenesis was constructed for six positions (W114, T177, G172, G316, A47, and R227). […] Therefore, in the second round of mutagenesis, six additional sites within the 5 Å range of the cofactor ribose (H43, V202, T265, V288, G289, and A290) were selected for saturation mutagenesis screening (Fig. 6c and Fig. S6). Three beneficial mutations were identified. […] Subsequently, combinatorial mutagenesis was performed, resulting in 11 double variants and 3 triple variants.\n(§2) Fig. 5 Relative activity of SpADH2 and its variants in oxidation of syringyl alcohol when utilizing p-BANA^+ as cofactor\n(§3) In preliminary screening by spectrophotometric analysis, PBS (pH 7.5) buffer (50 µL) in a 96-well plate was pre-warmed at 30°C for 15 min, and a final concentration of 5 mM p-BANA^+ and 1 mM substrate syringyl alcohol were added, and 50 µL of crude enzyme were add to each well to start the reaction, with WT as control. The reaction mixture was incubated at 30°C for 1 h, followed by addition of fluorescent probes in a final concentration of 0.2 mM, and was subjected to determination under 537 nm as described above."}, "SpADH2 variant A47S": {"test_system": "SpADH2 variant A47S", "assay": "Activity of variant in oxidation of syringyl alcohol with p-BANA^+ (Fig. 5), A47S", "description": "as §1, §2, §3"}, "SpADH2 variant A290V": {"test_system": "SpADH2 variant A290V", "assay": "Activity of variant in oxidation of syringyl alcohol with p-BANA^+ (Fig. 5), A290V", "description": "as §1, §2, §3"}},
  "data": [
    {"smiles": "NC(=O)c1ccc[n+](Cc2ccc(C(=O)O)cc2)c1", "note": "[p-BANA^+, para-3-carbamoyl-1-(4-carboxybenzyl)pyridin-1-ium]", "values": [
      {"measurement": "fold higher activity than WT", "setting": "SpADH2 variant A47G", "result": 1.3, "unit": "fold"},
      {"measurement": "fold higher activity than WT", "setting": "SpADH2 variant A47S", "result": 1.8, "unit": "fold"},
      {"measurement": "fold increase in activity vs WT", "setting": "SpADH2 variant A290V", "result": 3, "unit": "fold"}
    ]}
  ]
}
